Marks after values point to notes of the source that are not given here.
Test system: male C57BL/6 mice
Assay: Chronic constriction injury (CCI) model of neuropathic pain, von Frey paw withdrawal threshold
Type: in vivo, mouse
Experimental: To determine whether psilocybin may alleviate chronic neuropathic pain, various doses of psilocybin were tested in a mouse model of chronic constriction injury (CCI).
Male C57BL/6 mice (age 6-7 weeks, source: Charles River UK) were housed in standard caging in groups of 2-4, with free access to food (5CR4, Purina) and water (except during placement in the test box) on a 12/12 light/dark cycle.
All animals underwent behavioral testing of mechanical allodynia on three consecutive days (Day −2, Day−1 and Day 0) prior to surgery in order to determine the baseline withdrawal thresholds. Briefly, Static mechanical (tactile) allodynia was assessed by measurement of withdrawal threshold using calibrated (force; g) von-Frey monofilaments (Touch-Test Sensory Evaluator; Scientific Marketing Associates) applied to the plantar surface of the hind-paw. The animals were placed in individual Perspex boxes on a raised metal mesh for 30-40 minutes before the test. A series of graduated von Frey hairs (0.07, 0.16, 0.4, 0.6 and 1 g) was applied in sequence with a protocol of 1 second on 1 second off, repeated 10 times. Each hair was applied perpendicularly to the center of the ventral surface of the paw until it slightly bends. The force applied to the hind-paw of the animal to induce 5 responses out of 10 trials was recorded as paw withdrawal threshold (PWT). Three baseline paw withdrawal thresholds were taken on ipsilateral paws. The mean of the last two readings used as the baseline withdrawal threshold.
Subsequently, surgery was performed under anesthesia (Isoflurane mixed with oxygen, 3:1, 2 L/min) to tie three loose ligatures of prolene (7-0, Ethicon) around the sciatic nerve, with 1 mm spacing between each. The nerve was then returned below the muscle layer and the wound closed using absorbable sutures (Vicryl).
Following recovery from surgery, Von Frey assessment of mechanical allodynia was taken on days 19 and 22. Animals were then ranked and randomized (based on a Latin square design) to treatment groups according to the percentage change (compared to pre-surgery baseline) of the mean mechanical withdrawal threshold observed on days 19 and 22. Only those animals showing a PWT percentage change of >50% from pre-surgery baseline were included in the study.
On day 23, the animals were dosed with psilocybin (1, 3 or 10 mg/kg by intraperitoneal injection) or vehicle (10 mL/kg by intraperitoneal injection). Nerve pain medication Pregabalin (15 mg/kg administered orally) was also used as a positive control. Allodynia was then assessed at 0.5, 4 and 24 hours post-treatment timepoint (PTT).

CN(C)CCc1c[nH]c2cccc(OP(=O)(O)O)c12 [Psilocybin, psilocybin]
Force-induced paw withdrawal, mean (1 mg/kg IP group, D19-22 Neuropathic baseline (before dosing)): 0.16 g
Force-induced paw withdrawal, mean (1 mg/kg IP group, D-2 D-1 Baseline (before surgery and dosing)): 0.72 g
Force-induced paw withdrawal, mean (1 mg/kg IP, D23 0.5 hours PTT): 0.16 g
Force-induced paw withdrawal, mean (1 mg/kg IP, D23 4 hours PTT): 0.16 g
Force-induced paw withdrawal, mean (1 mg/kg IP, D24 24 hours PTT): 0.15 g
Force-induced paw withdrawal, mean (3 mg/kg IP group, D19-22 Neuropathic baseline (before dosing)): 0.16 g
Force-induced paw withdrawal, mean (3 mg/kg IP group, D-2 D-1 Baseline (before surgery and dosing)): 0.68 g
Force-induced paw withdrawal, mean (3 mg/kg IP, D23 0.5 hours PTT): 0.22 g
Force-induced paw withdrawal, mean (3 mg/kg IP, D23 4 hours PTT): 0.15 g
Force-induced paw withdrawal, mean (3 mg/kg IP, D24 24 hours PTT): 0.25 g
Force-induced paw withdrawal, mean (10 mg/kg IP group, D19-22 Neuropathic baseline (before dosing)): 0.17 g
Force-induced paw withdrawal, mean (10 mg/kg IP group, D-2 D-1 Baseline (before surgery and dosing)): 0.79 g
Force-induced paw withdrawal, mean (10 mg/kg IP, D23 0.5 hours PTT): 0.38* g
Force-induced paw withdrawal, mean (10 mg/kg IP, D23 4 hours PTT): 0.51* g
Force-induced paw withdrawal, mean (10 mg/kg IP, D24 24 hours PTT): 0.25 g

— patent publication US12377112B2, “Methods of treating neurocognitive disorders, chronic pain and reducing inflammation” (priority 2019, dated 2025)
